Bases are written 5' to 3'; sugars and linkages follow in the same order, as letters with counts (s phosphorothioate, o phosphodiester; PS: all linkages phosphorothioate). The collection does not say whether C is 5-methylated. l = locked nucleic acid (LNA); d = 2'-deoxy (DNA) Bounds are passed on as bounds.

The values below come from the OligoGym collection.

This data set has as its target Tau. The data set can be described thus: rat primary cortical neurons, FLIPR, 25 uM ASO.
Regarding “TGCAATTTCCTTTCCAT (sugars l3 d11 l3, PS)”, the calcium oscillation score is 67.6 % of control.
As for “CCACCTCCTGGTTTATGATG (sugars l3 d14 l3, PS)”, the figure is 19.4 % of control; as for “ACCACATTATCATCCATTCT (sugars l3 d14 l3, PS)”, 32.2 % of control.
As for “AAGTGATTAACCAATTAACC (sugars l3 d14 l3, PS)”, the figure is 57 % of control; as for “ACTTTCCTAATTCCCAAATT (sugars l3 d15 l2, PS)”, 63.3 % of control; as for CTCTTAGCATCAGAGG (sugars l3 d10 l3, PS), 70.4 % of control.
As for “AACCCCTTCAACATCAGC (sugars l2 d12 l4, PS)”, the figure is 64.9 % of control; as for TCTTCATTCTTGCCCA (sugars l2 d12 l2, PS), 38.1 % of control; as for “TTCTTCCATCCTAAGTCA (sugars l3 d13 l2, PS)”, 51.7 % of control.
On to “TATTTCCAAATTCACTTTTA (sugars l5 d10 l5, PS)”, for which the calcium oscillation score was ≥ 200 % of control.
As for CTGGTTTATGATGGAT (sugars l3 d10 l3, PS), the figure is 0 % of control; as for “CTGGTTTGTAGACTATTTGC (sugars l3 d14 l3, PS)”, 0 % of control.
As for “CCCTTGATCATATTTGTGGC (sugars l3 d14 l3, PS)”, the figure is 35.7 % of control; as for “CAACTTTCATCTACTTTTCA (sugars l3 d14 l3, PS)”, 94.4 % of control; as for CGTGATCTTCCATCAC (sugars l3 d10 l3, PS), 127 % of control.
The figure for “CTTTATTTCCAAATTCAC (sugars l3 d11 l1 d1 l2, PS)” is 132 % of control.
For the sequence “ACAATTCTCAGCACACC (sugars l2 d11 l4, PS)”, the calcium oscillation score was 48.8 % of control.
As for “TTTAGTTTTCCCACCCAA (sugars l2 d13 l3, PS)”, the figure is 69.4 % of control; as for “TATTTATTCTTTTTATTATT (sugars l4 d12 l4, PS)”, 58.6 % of control.
Take CTCCTATATTCTCAGT (sugars l3 d9 l4, PS): the calcium oscillation score is 73.7 % of control.
As for “TAAATACATCAATAGAAGGC (sugars l3 d14 l3, PS)”, the figure is 50.4 % of control; as for “ACTCTTAGCATCCACTT (sugars l4 d11 l2, PS)”, 40.6 % of control.
As for “ACCAATTAACCGAACTGCGA (sugars l3 d14 l3, PS)”, the figure is 22.6 % of control.
The figure for “ACCATCATACTCCAAGT (sugars l3 d12 l2, PS)” is 77.7 % of control; for “CGCGGAAGGTCAGCTTGTGG (sugars l3 d14 l3, PS)” it is 0 % of control.
With “CTCCAATTTTAAACTTAAA (sugars l4 d11 l4, PS)”, the calcium oscillation score was 70.2 % of control.
The figure for “ATCACTGATTTTGAAGTCCC (sugars l5 d10 l5, PS)” is ≥ 200 % of control.
The figure for “AAGAGTCACTGCACTGCATT (sugars l3 d14 l3, PS)” is 30.9 % of control; for “TCTACATTTTTGTCTCA (sugars l3 d11 l3, PS)” it is 47.1 % of control; for CCATCCTATCTTCTAG (sugars l3 d10 l3, PS) it is 44.3 % of control.
As for GCAGGCGCGAGCAG (sugars l3 d8 l3, PS), the figure is 40.6 % of control.
For the sequence “GTTAACTCATCAACACC (sugars l4 d10 l3, PS)”, the calcium oscillation score is 86.6 % of control.
As for “ACTTTTGAACCCATTCC (sugars l2 d12 l3, PS)”, the figure is 83.6 % of control; as for TCCTAATCCTGTGCT (sugars l3 d9 l3, PS), 140 % of control; as for ACAGCCTCATAAACCT (sugars l4 d10 l2, PS), 66.8 % of control.
The figure for CATGATTGTGGGCTTA (sugars l3 d10 l3, PS) is 0 % of control.
As for GCTCTTCAAATCATTC (sugars l4 d8 l4, PS), the figure is 58.3 % of control; as for “ATTATCATCCATTCTGA (sugars l2 d11 l4, PS)”, 45.6 % of control.
For the sequence “CCCCACTTTTAATTAAATTT (sugars l3 d15 l2, PS)”, the calcium oscillation score was 97 % of control.
As for “CTCAAATCAAACTAATATT (sugars l4 d11 l4, PS)”, the figure is 98.6 % of control.
As for CACCTTTTCATGTTAAA (sugars l4 d9 l4, PS), the figure is 97.5 % of control; as for “AGAACTTCTAGTTATACAGT (sugars l3 d14 l3, PS)”, 35.7 % of control.
The figure for GCTCCAACCACACCTT (sugars l2 d11 l3, PS) is 85 % of control; for “ATGGATGTTGCCTAATGAGC (sugars l3 d14 l3, PS)” it is 0 % of control; for TGGATGTTGCCTAATG (sugars l3 d10 l3, PS) it is 0 % of control.
Take “CTACTTTATTCCCTTAACAA (sugars l2 d15 l3, PS)”: the calcium oscillation score is 86.8 % of control.
As for CAATTAACCGAACTGC (sugars l3 d10 l3, PS), the figure is 89.7 % of control; as for “CTCTTTCTTAATTCAGA (sugars l4 d10 l3, PS)”, 60.1 % of control.
With “TTATTTCCAAATTCACTTTT (sugars l5 d11 l4, PS)”, the calcium oscillation score is 119 % of control.
Consider “CACAAACCAACTCAACATTA (sugars l4 d13 l3, PS)”, for which the calcium oscillation score was 82.7 % of control.
The figure for “TTATTTCCAAATTCACTTTT (sugars llldldddddddddllddll, PS)” is 110 % of control; for “CCACCCATCAATTTGGAAAG (sugars l3 d14 l3, PS)” it is 58.1 % of control.
As for “CTTTATTTCCAAATTCACTT (sugars l2 d2 l1 d11 l4, PS)”, the figure is 74.5 % of control.
The figure for “CCTACTTTATTCCCTTA (sugars l2 d12 l3, PS)” is 95.9 % of control; for GGGAGGCAGACACCTC (sugars l3 d10 l3, PS) it is 42.8 % of control; for CAGTAACATCCATTTC (sugars l4 d8 l4, PS) it is 87.6 % of control.
On to AGAAATAAGTGGTAGT (sugars l3 d11 l2, PS), for which the calcium oscillation score was 85.7 % of control.
Regarding “GCAGACACCTCGTCAGCTAG (sugars l3 d14 l3, PS)”, the calcium oscillation score is 59.6 % of control.
For CACTCTCTGCATATAT (sugars l4 d9 l3, PS), the calcium oscillation score was 69 % of control.
As for GGTCTGGCATGGGCA (sugars l3 d9 l3, PS), the figure is 59 % of control; as for “CTTTGAACACCCCATCTA (sugars l2 d14 l2, PS)”, 45.6 % of control; as for “AATCAATTCTCATTTCAACC (sugars l4 d13 l3, PS)”, 63.9 % of control.
For the sequence GGCGAGTCTACCATGT (sugars l3 d10 l3, PS), the calcium oscillation score is 43.4 % of control.
As for CTTCTCAGCCACTGTT (sugars l3 d10 l3, PS), the figure is 67.9 % of control.
For GGTTTGTAGACTATT (sugars l3 d9 l3, PS), the calcium oscillation score is 0 % of control.
With “ACCCCACATTTGCAAAC (sugars l3 d12 l2, PS)”, the calcium oscillation score is 63.5 % of control.
The figure for “AAGACCAAGCAGAGATAAAC (sugars l3 d14 l3, PS)” is 16.7 % of control; for AGTCTTTATTAACACTC (sugars l4 d9 l4, PS) it is 60.8 % of control.
As for GCATGATTGTGGGC (sugars l3 d8 l3, PS), the figure is 85.7 % of control; as for AGTGACAGAAGAGACG (sugars l3 d10 l3, PS), 9.04 % of control; as for “AATTATTAAATCTTCTCTTA (sugars l4 d12 l4, PS)”, 62.6 % of control.
The figure for “TGCTCTTAGCATCAGAGGTT (sugars l3 d14 l3, PS)” is 25.9 % of control; for “CCCAGAATTCTAACTAT (sugars l4 d11 l2, PS)” it is 77 % of control; for CACCTTGCTCAGGTCA (sugars l3 d10 l3, PS) it is 134 % of control.
Turning to CAAGAGGCACAAGTC (sugars l3 d9 l3, PS), the calcium oscillation score is 112 % of control.
As to “TTAATTCATTTAATTCTCTT (sugars l4 d12 l4, PS)”, the calcium oscillation score was 86.1 % of control.
Take “CCACTCCATGTCAATCA (sugars l4 d11 l2, PS)”: the calcium oscillation score was 63.5 % of control.
Turning to TGATTGTGGGCTTAGG (sugars l3 d10 l3, PS), the calcium oscillation score was 2.71 % of control.
Turning to “TGAAGTCAAGCTTCTCAGAT (sugars l3 d14 l3, PS)”, the calcium oscillation score is 0 % of control.
As for “CTCAAACTTAAATTTATTTT (sugars l4 d12 l4, PS)”, the figure is 90.7 % of control.
The figure for GGCGTTCTCGCGGAAG (sugars l3 d10 l3, PS) is 102 % of control; for “ACCAGTTACCATCATAC (sugars l4 d11 l2, PS)” it is 93.2 % of control; for CCCAGCGTGATCTT (sugars l3 d8 l3, PS) it is 46 % of control.
The figure for TTCTCTAATTGTCCAAT (sugars l4 d9 l4, PS) is 64 % of control; for GACGTTGCTAAGATCC (sugars l3 d10 l3, PS) it is 22.6 % of control; for “TCCACAAACCAACTCAACA (sugars l2 d13 l4, PS)” it is 102 % of control.
Take “TTGCCTAATGAGCCACACTT (sugars l3 d14 l3, PS)”: the calcium oscillation score was 36.5 % of control.
The figure for “CTTTTCTACTCTACTCTCAA (sugars l4 d14 l2, PS)” is 67.6 % of control; for “AGCTGGGTGGTGTCTTTGGA (sugars l3 d14 l3, PS)” it is 0 % of control; for “CTTTATTTCCAAATTCACTT (sugars l5 d11 l4, PS)” it is 143 % of control.
The figure for “CAACTCTTTGAACACCC (sugars l4 d11 l2, PS)” is 76.8 % of control; for “ACCCACTTTCCTAATTCCCA (sugars l1 d17 l2, PS)” it is 76.6 % of control.
As for “TTGAAGTCAAGCTTCTCAGA (sugars l3 d14 l3, PS)”, the calcium oscillation score was 0 % of control.
For the sequence AGGTCAACTGGTTT (sugars l3 d8 l3, PS), the calcium oscillation score was 117 % of control.
As for ATAGTCACTCTGGTGA (sugars l3 d10 l3, PS), the figure is 85.7 % of control.
